Literature values, collected in patent publication US6458821B1, “N-substituted azabicycloheptane derivatives, production and use thereof” (Abbott Laboratories, priority 1998, dated 2002).

Experiments:
[1] = molecular target: T1, dopamine D4 receptor (Homo sapiens, UniProt P21917); conditions: background statement on substance A
T1 sequence (P21917 1-419): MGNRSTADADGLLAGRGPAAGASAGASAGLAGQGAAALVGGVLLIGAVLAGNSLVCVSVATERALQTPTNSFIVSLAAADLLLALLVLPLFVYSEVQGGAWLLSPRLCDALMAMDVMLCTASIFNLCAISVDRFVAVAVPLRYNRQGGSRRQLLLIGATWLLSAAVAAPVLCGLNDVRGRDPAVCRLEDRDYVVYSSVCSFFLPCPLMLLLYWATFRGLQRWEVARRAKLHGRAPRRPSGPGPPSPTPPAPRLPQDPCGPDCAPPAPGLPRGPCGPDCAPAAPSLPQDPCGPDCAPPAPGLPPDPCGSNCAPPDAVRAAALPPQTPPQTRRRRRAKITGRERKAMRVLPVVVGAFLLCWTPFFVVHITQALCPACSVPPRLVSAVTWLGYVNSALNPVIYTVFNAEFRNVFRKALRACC

[2] = molecular target: serotonin 2A receptor (Homo sapiens, UniProt P28223); conditions: background statement on substance A
[3] = molecular target: D2 (Homo sapiens, UniProt P14416); conditions: D4/5-HT2A versus D2; background statement
[4] = limits the dosage of substance A

Chain of serotonin 2A receptor (P28223 whole entry): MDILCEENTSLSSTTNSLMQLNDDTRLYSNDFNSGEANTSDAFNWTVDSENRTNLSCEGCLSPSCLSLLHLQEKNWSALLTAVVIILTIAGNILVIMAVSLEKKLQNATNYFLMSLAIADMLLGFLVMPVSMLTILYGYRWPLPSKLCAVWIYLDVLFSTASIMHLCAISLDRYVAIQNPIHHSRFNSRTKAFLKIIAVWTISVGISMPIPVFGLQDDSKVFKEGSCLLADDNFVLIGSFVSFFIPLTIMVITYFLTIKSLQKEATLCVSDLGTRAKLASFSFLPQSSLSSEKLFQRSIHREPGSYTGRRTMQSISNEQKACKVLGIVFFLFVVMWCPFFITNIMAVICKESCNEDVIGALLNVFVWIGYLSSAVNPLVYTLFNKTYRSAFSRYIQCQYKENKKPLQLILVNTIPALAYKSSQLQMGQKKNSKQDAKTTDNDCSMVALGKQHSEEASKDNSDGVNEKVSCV
Chain of D2 (P14416 whole entry): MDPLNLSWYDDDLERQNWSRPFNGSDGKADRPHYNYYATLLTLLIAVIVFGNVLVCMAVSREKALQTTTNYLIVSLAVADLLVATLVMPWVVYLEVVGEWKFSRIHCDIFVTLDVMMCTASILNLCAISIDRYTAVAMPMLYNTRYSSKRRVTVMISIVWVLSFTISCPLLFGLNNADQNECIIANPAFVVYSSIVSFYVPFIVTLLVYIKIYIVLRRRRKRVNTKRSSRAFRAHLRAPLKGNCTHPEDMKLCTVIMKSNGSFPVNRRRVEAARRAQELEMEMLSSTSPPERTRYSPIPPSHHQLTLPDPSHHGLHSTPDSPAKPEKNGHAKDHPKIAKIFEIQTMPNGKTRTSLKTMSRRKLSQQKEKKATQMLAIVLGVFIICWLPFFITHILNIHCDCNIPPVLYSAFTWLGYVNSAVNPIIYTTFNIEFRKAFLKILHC

In the case of `O=c1[nH]c2ccccc2c(=O)n1CCN1C[C@H]2C[C@H](c3ccc(F)cc3)[C@H]2C1` [substance A, (+)-(1S,5R,6S)-exo-3-[2-[6-(4-fluorophenyl)-3-azabicyclo[3.2.0]-heptan-3-yl]ethyl]-1H,3H-quinazoline-2,4-dione], the D4 affinity [1] is listed as “high”, the 5-HT2A affinity [2] is listed as “high” and the “selectivity versus D2” value [3] is listed as “good selectivity”. The “prolongations in the QT interval in the ECG” value [4] was “prolongations which occur in the QT interval”.
